Test results from US20150164895A1, “DETERMINING SENSITIVITY OF CELLS TO B-RAF INHIBITOR TREATMENT BY DETECTING KRAS MUTATION AND RTK EXPRESSION LEVELS” (GENENTECH, INC., priority 2009, published 2015).

Columns and labels:
[1] = tested on: Venus-C-RAF / CFP-K-RAS in HEK293T cells; test: C-RAF plasma membrane translocation, live cell confocal imaging; type: cell-based; parameters: dose or concentration left out as unconfirmed
Excerpt: Aliquots of the membrane and cytosolic fractions were immunoblotted with the indicated antibodies. (B) HEK293T cells were transiently transfected with Venus-C-RAF (green), CFP-K-RAS (red) and mCherry-H2B (blue).

B-RAFV600E cells = test: Cellular proliferation of B-RAFV600E cells in presence of EGF, single agents and combinations; type: cell-based; conditions: in combination with RAF inhibitor; 20 ng/ml EGF in the media
Description: (A) Cells were treated with […] compound in serum free media for 1 hour. For stimulation 20 ng/ml EGF was added for 5 min before cells were lysed. Lysates were transferred to an MSD plate where phospho- and total MEK levels were measured. […] Cells were dosed with indicated inhibitors, either alone or in combination in the presence of 20 ng/ml EGF in the media.

[2] = tested on: pERK in BRAF V600E cells expressing EGFR; test: pERK MSD assay, basal and EGF-stimulated; type: cell-based; conditions: serum starved, -EGF or +EGF
Description: (A) Table of genotype and EGFR levels among lines tested. (B) Measurement of basal and stimulated pERK levels: cells were treated with […] compound in serum free media for 1 hour. For stimulation 20 ng/ml EGF was added for 5 min before cells were lysed. Lysates were transferred to an MSD plate where phospho- and total ERK levels were measured. (C) pERK IC50 data are plotted for the two Raf inhibitors (CHR-265, 1-methyl-5-[[2-[5-(trifluoromethyl)-1H-imidazol-2-yl]-4-pyridinyl]oxy]-N-[4-(trifluoromethyl)phenyl]-1H-Benzimidazol-2-amine and GDC-0879) under basal and EGF-stimulated conditions.
FIG. 29 summarizes certain RAF inhibitor (GDC-0879, PLX-4720 and “Raf inh a” which is 2,6-difluoro-N-(3-methoxy-1H-pyrazolo[3,4-b]pyridin-5-yl)-3-(propylsulfonamido)benzamide) potencies for blocking cellular pERK induction in response to EGF stimulation.

[3] = tested on: HT-29 BRAF V600E human colorectal carcinoma xenografts; test: HT-29 xenograft combination efficacy; type: in vivo, NCR nude (Taconic) mice; conditions: RAF inh a and Tarceva given in combination
Description: (§1) In FIG. 34A, RAF inh a was given at 100 mg/kg with increasing doses of Tarceva. In FIG. 34B, Tarceva was given to all animals with increasing concentrations of RAF inh a. […] In FIG. 34C, lysates from tumors treated with the indicated doses of inhibitors in FIGS. 34A and B were analyzed for phospho-ERK (pERK) levels by western blot.

[4] = tested on: phospho-ERK (pERK) levels in HT-29 tumors; test: phospho-ERK western blot of HT-29 tumor lysates; type: in vivo; conditions: RAF inhibitor a and Tarceva co-administered in mice
Description: as §1

CX-1 cells = test: Combination study of RAF inhibitor and Tarceva in colon tumor lines; type: cell-based; conditions: Tarceva administered together with RAF inhibitor; CX-1 (high EGFR)
Excerpt: FIGS. 32A-C depict combination studies of RAF inhibitor and EGFR inhibitor (Tarceva) in colon tumor lines with different levels of EGFR expression.
In FIG. 32C, the effects of combination treatment of CX-1 cells with either RAF inhibitor alone, Tarceva alone or combination of RAF inhibitor and Tarceva are shown. Neither RAF inhibitor alone nor Tarceva alone suppress proliferation as effectively as the combination. Both inhibitors show good synergy when administered together to CX-1 cells.

Row | SMILES | resistance of cellular proliferation to RAF inhibitors under EGF (B-RAFV600E cells) | blocking wildtype RAF signaling / selectivity (pERK induction in response to EGF) [2] | antitumor efficacy in combination [3] | phospho-ERK levels in the tumors [4] | further results
1 | Cc1ccc(NC(=O)c2cccc(C(C)(C)C#N)c2)cc1Nc1ccc2ncn(C)c(=O)c2c1 [AZ-628, 3-(2-cyanopropan-2-yl)-N-(4-methyl-3-(3-methyl-4-oxo-3,4-dihydroquinazolin-6-ylamino)phenyl)benzamide] | – | – | – | – | Venus-tagged C-RAF membrane translocation [1]: co-localizes with CFP-KRAS on the plasma membrane
2 | O=C(NOC[C@H](O)CO)c1ccc(F)c(F)c1Nc1ccc(I)cc1F [PD-0325901] | overcomes that resistance | – | – | – | –
3 | CCCS(=O)(=O)Nc1ccc(F)c(C(=O)c2c[nH]c3ncc(Cl)cc23)c1F [PLX4720, N-[3-[(5-chloro-1H-pyrrolo[2,3-b]pyridin-3-yl)carbonyl]-2,4-difluorophenyl]-1-propanesulfonamide] | – | BRAF V600E selective | – | – | –
4 | CCCS(=O)(=O)Nc1ccc(F)c(C(=O)Nc2cnc3[nH]nc(OC)c3c2)c1F [Raf inh a, 2,6-difluoro-N-(3-methoxy-1H-pyrazolo[3,4-b]pyridin-5-yl)-3-(propylsulfonamido)benzamide] | – | BRAF V600E selective | Increased efficacy | synergized in decreasing phospho-ERK levels | –
5 | C#Cc1cccc(Nc2ncnc3cc(OCCOC)c(OCCOC)cc23)c1 [Tarceva, erlotinib] | overcomes that resistance | – | Increased efficacy | synergized in decreasing phospho-ERK levels | suppression of proliferation, combination effect (CX-1 cells): good synergy
